Structures are written as SMILES.

The target in the test is MNK2 (Homo sapiens (Human), UniProt Q9HBH9). The test can be described thus: MNK Biochemical Enzymatic Assay (ADP-Glo), MNK2 binding assay. The protocol: MNK Biochemical Enzymatic Assay. This protocol establishes the binding assays for MNK1 and MNK2 using ADP-Glo assay. MNK phosphorylates the substrate and converts ATP to ADP, which was detected by Envision and used to reflect the reminding activity of MNK. Reagents and equipment used in the assay are listed below, followed by the protocol.
MNK2, sequence (Q9HBH9 whole entry): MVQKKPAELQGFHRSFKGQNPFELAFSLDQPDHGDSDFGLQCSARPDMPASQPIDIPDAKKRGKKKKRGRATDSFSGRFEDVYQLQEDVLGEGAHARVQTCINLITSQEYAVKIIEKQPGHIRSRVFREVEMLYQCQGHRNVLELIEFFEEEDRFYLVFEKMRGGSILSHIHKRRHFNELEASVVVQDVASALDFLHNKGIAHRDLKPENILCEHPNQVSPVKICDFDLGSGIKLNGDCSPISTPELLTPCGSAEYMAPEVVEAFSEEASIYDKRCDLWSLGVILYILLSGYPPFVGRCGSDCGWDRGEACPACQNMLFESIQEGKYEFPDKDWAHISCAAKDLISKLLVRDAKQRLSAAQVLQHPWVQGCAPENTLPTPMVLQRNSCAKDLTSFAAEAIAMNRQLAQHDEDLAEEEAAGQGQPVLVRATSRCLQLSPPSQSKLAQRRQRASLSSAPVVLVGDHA
• a) Add 50 μL compound to 384-well dilution plate • b) Dilute compound 1:3 in succession in DMSO for each column for 10+0 pts (refer to dilution plate map) • c) Transfer 0.1 μL diluted compound solution in each row to 384 assay plate using Echo, each column containing 2 replicates (refer to assay plate map) • d) Add 5 μL enzyme working solution to 384-well assay plate, centrifuge 1000 RPM for 1 min • e) Incubate at 25° C. for 15 min • f) Add 5 μL substrate working solution to initiate reaction • g) Incubate at 25° C. for 60 min • h) Add 10 μL ADP Glo reagent, centrifuge 1000 RPM for 1 min • i) Incubate at 25° C. for 60 min • j) Add 20 μL kinase detection reagent, centrifuge 1000 RPM for 1 min • k) Incubate at 25° C. for 60 min • l) Read on Envision for US LUM as RLU • m) Data analysis: IC50s were determined based on a non-linear regression analysis of data collected.
In general terms: ADP-Glo first removes unused ATP, then detects ADP through luciferase.
For `Cc1cc(Nc2cc(N[C@H]3CC[C@@H](O)C3)ncn2)[n+]([O-])c2c1C(=O)NC21CCCCC1` (relative stereo) [Compound XXIX-Y, 2′-((6-((cis-3-hydroxycyclopentyl)amino)pyrimidin-4-yl)amino)-4′-methyl-5′-oxo-5′,6′-dihydrospiro[cyclohexane-1,7′-pyrrolo[3,4-b]pyridine] 1′-oxide], the IC50 (commonly the point on the concentration scale where inhibition reaches its midpoint) was 10 to 100 nM.

Regarding `Cc1cc(-c2cc(-c3cc(N)ncn3)no2)cc2c1C(=O)NC21CCCCC1` [Compound VII, 6′-(3-(6-Aminopyrimidin-4-yl)isoxazol-5-yl)-4′-methylspiro[cyclohexane-1,1′-isoindolin]-3′-one], the IC50 was more than 1000 nM.

In the case of `Nc1cc(Nc2cc3c(s2)C(=O)NC32CCNCC2)ncn1` [Compound VIII-A, 2′-((6-aminopyrimidin-4-yl)amino)spiro[piperidine-4,4′-thieno[2,3-c]pyrrol]-6′(5′H)-one], the IC50 is 10 to 100 nM.

Take `Nc1cc(Nc2cc3c(s2)C(=O)NC32CCCCC2)ncn1` [Compound X, 2′-((6-Aminopyrimidin-4-yl)amino)spiro[cyclohexane-1,4′-thieno[2,3-c]pyrrol]-6′(5′H)-one]: the 50% inhibitory concentration (IC50) fell in the range of 10 to 100 nM.

As for `O=C1NC2(CCCCC2)c2cc(Nc3ccncn3)sc21` [Compound X-A, 2′-(pyrimidin-4-ylamino)spiro[cyclohexane-1,4′-thieno[2,3-c]pyrrol]-6′(5′H)-one], the IC50 lay in the range of 10 to 100 nM.

`O=C1NC2(CCCCC2)c2cc(Nc3ncnc4sccc34)sc21` [Compound X-B, 2′-(thieno[2,3-d]pyrimidin-4-ylamino)spiro[cyclohexane-1,4′-thieno[2,3-c]pyrrol]-6′(5′H)-one] yielded an IC50 of 100 to 1000 nM.

Molecule `Cc1c(N)ncnc1Nc1cc2c(s1)C(=O)NC21CCCCC1` [Compound X-D, 2′-((6-amino-5-methylpyrimidin-4-yl)amino)spiro[cyclohexane-1,4′-thieno[2,3-c]pyrrol]-6′(5′H)-one] gave an IC50 of 10 to 100 nM.

Take `Nc1cc(Nc2cc3c(s2)C(=O)NC32CCCC2)ncn1` [Compound X-E, 2′-((6-aminopyrimidin-4-yl)amino)spiro[cyclopentane-1,4′-thieno[2,3-c]pyrrol]-6′(5′H)-one]: the 50% inhibitory concentration (IC50) fell in the range of 10 to 100 nM.

The molecule `Nc1cc(Nc2cc3n(n2)C2(CCCCC2)NC3=O)ncn1` [Compound XI, 2′-((6-Aminopyrimidin-4-yl)amino)spiro[cyclohexane-1,6′-imidazo[1,5-b]pyrazol]-4′(5′H)-one] gave an IC50 of more than 1000 nM.

`CSc1ncc2c(-c3cc4c(s3)C(=O)NC43CCCCC3)n[nH]c2n1` [Compound XIX, 2′-(6-(Methylthio)-1H-pyrazolo[3,4-d]pyrimidin-3-yl)spiro[cyclohexane-1,4′-thieno[2,3-c]pyrrol]-6′(5′H)-one] showed a half-maximal inhibitory concentration (IC50) of 100 to 1000 nM.

`Cc1cc(-c2cc(-c3cc(N)ncn3)no2)c(=O)n2c1C(=O)NC21CCCCC1` [Compound XVIII, 6′-(3-(6-Aminopyrimidin-4-yl)isoxazol-5-yl)-8′-methyl-2′H-spiro[cyclohexane-1,3′-imidazo[1,5-a]pyridine]-1′,5′-dione] registered an IC50 of more than 1000 nM.

As to `Nc1ncnc(Nc2cc3c(s2)C(=O)NC32CCCCC2)c1Cl` [Compound XX, 2′-((6-Amino-5-chloropyrimidin-4-yl)amino)spiro[cyclohexane-1,4′-thieno[2,3-c]pyrrol]-6′(5′H)-one], the IC50 was in the range of 10 to 100 nM.

Turning to `O=C1NC2(CCCCC2)c2cc(Nc3ncnc(NC(=O)C4CC4)c3Cl)sc21` [Compound XX-7, N-(5-Chloro-6-((6′-oxo-5′,6′-dihydrospiro[cyclohexane-1,4′-thieno[2,3-c]pyrrol]-2′-yl)amino)pyrimidin-4-yl)cyclopropanecarboxamide], the IC50 lay in the range of 100 to 1000 nM.

`O=C1NC2(CCCCC2)c2cc(Nc3cc(NC(=O)C4CC4)ncn3)sc21` [Compound XX-A, N-(6-((6′-Oxo-5′,6′-dihydrospiro[cyclohexane-1,4′-thieno[2,3-c]pyrrol]-2′-yl)amino)pyrimidin-4-yl)cyclopropanecarboxamide] displayed an IC50 of 10 to 100 nM.

For `COc1c(NC(=O)C2CC2)ncnc1Nc1cc2c(s1)C(=O)NC21CCCCC1` [Compound XX-B, N-(5-Methoxy-6-((6′-oxo-5′,6′-dihydrospiro[cyclohexane-1,4′-thieno[2,3-c]pyrrol]-2′-yl)amino)pyrimidin-4-yl)cyclopropanecarboxamide], the IC50 fell in the range of 100 to 1000 nM.

Turning to `Cc1c(NC(=O)C2CC2)ncnc1Nc1cc2c(s1)C(=O)NC21CCCCC1` [Compound XX-C, N-(5-Methyl-6-((6′-oxo-5′,6′-dihydrospiro[cyclohexane-1,4′-thieno[2,3-c]pyrrol]-2′-yl)amino)pyrimidin-4-yl)cyclopropanecarboxamide], the IC50 was in the range of 100 to 1000 nM.

As for `O=C(Nc1cc(Nc2cc3c(s2)C(=O)NC32CCCCC2)ncn1)c1ccccc1` [Compound XX-E, N-(6-((6′-oxo-5′,6′-dihydrospiro[cyclohexane-1,4′-thieno[2,3-c]pyrrol]-2′-yl)amino)pyrimidin-4-yl)benzamide], the half-inhibitory concentration (IC50) was in the range of 10 to 100 nM.

On to `Nc1cc(Nc2sc3c(c2Cl)C2(CCCCC2)NC3=O)ncn1` [Compound XXI, 2′-((6-Aminopyrimidin-4-yl)amino)-3′-chlorospiro[cyclohexane-1,4′-thieno[2,3-c]pyrrol]-6′(5′H)-one], for which the half-inhibitory concentration (IC50) was in the range of 100 to 1000 nM.

For the molecule `Nc1cc(Nc2cc3c(s2)C(=O)NC32CCOCC2)ncn1` [Compound XXII, 2′-((6-Aminopyrimidin-4-yl)amino)-2,3,5,6-tetrahydrospiro[pyran-4,4′-thieno[2,3-c]pyrrol]-6′(5′H)-one], the IC50 fell in the range of 10 to 100 nM.

The molecule `CNc1cc(Nc2cc3c(s2)C(=O)NC32CCCCC2)ncn1` [Compound XXIII, 2′-((6-(Methylamino)pyrimidin-4-yl)amino)spiro[cyclohexane-1,4′-thieno[2,3-c]pyrrol]-6′(5′H)-one] displayed a half-inhibitory concentration (IC50) of 10 to 100 nM.

In the case of `CN(C)CCNc1cc(Nc2cc3c(s2)C(=O)NC32CCCCC2)ncn1` [Compound XXIII-A, 2′-((6-((2-(Dimethylamino)ethyl)amino)pyrimidin-4-yl)amino)spiro [cyclohexane-1,4′-thieno[2,3-c]pyrrol]-6′(5′H)-one], the IC50 fell in the range of 100 to 1000 nM.

As to `O=C1NC2(CCCCC2)c2cc(Nc3cc(Nc4ccccc4)ncn3)sc21` [Compound XXIII-B, 2′-((6-(Phenylamino)pyrimidin-4-yl)amino)spiro[cyclohexane-1,4′-thieno[2,3-c]pyrrol]-6′(5′H)-one], the IC50 lay in the range of 10 to 100 nM.

`NC1CCN(c2cc(Nc3cc4c(s3)C(=O)NC43CCCCC3)ncn2)C1` (centres unmarked) [Compound XXIII-D, 2′-((6-(3-Aminopyrrolidin-1-yl)pyrimidin-4-yl)amino)spiro[cyclohexane-1,4′-thieno[2,3-c]pyrrol]-6′(5′H)-one] came in with an IC50 of more than 1000 nM.

As to `O=C1NC2(CCCCC2)c2cc(Nc3cc(N4CCCCC4)ncn3)sc21` [Compound XXIII-E, 2′-((6-(Piperidin-1-yl)pyrimidin-4-yl)amino)spiro[cyclohexane-1,4′-thieno[2,3-c]pyrrol]-6′(5′H)-one], the IC50 is more than 1000 nM.

`O=C1NC2(CCCCC2)c2cc(Nc3ncnc4sc5c(c34)CCCC5)sc21` [Compound XXIII-F, 2′-((5,6,7,8-Tetrahydrobenzo[4,5]thieno[2,3-d]pyrimidin-4-yl)amino)spiro [cyclohexane-1,4′-thieno[2,3-c]pyrrol]-6′(5′H)-one] displayed an IC50 of 10 to 100 nM.

Regarding `O=C1NC2(CCCCC2)c2cc(Nc3cc(Cl)ncn3)sc21` [Compound XXIII-G, 2′-((6-Chloropyrimidin-4-yl)amino)spiro[cyclohexane-1,4′-thieno[2,3-c]pyrrol]-6′(5′H)-one], the IC50 lay within 10 to 100 nM.

In the case of `O=C1NC2(CCCCC2)c2cc(Nc3cc(N4CCCC4)ncn3)sc21` [Compound XXIII-H, 2′-((6-(Pyrrolidin-1-yl)pyrimidin-4-yl)amino)spiro[cyclohexane-1,4′-thieno[2,3-c]pyrrol]-6′(5′H)-one], the IC50 is more than 1000 nM.

The molecule `Cc1cc(Nc2cc3c(s2)C(=O)NC32CCCCC2)ncn1` [Compound XXIII-I, 2′-((6-Methylpyrimidin-4-yl)amino)spiro[cyclohexane-1,4′-thieno[2,3-c]pyrrol]-6′(5′H)-one] came in with an IC50 of 100 to 1000 nM.

`O=C1NC2(CCCCC2)c2cc(Nc3cc(N4CCOCC4)ncn3)sc21` [Compound XXIII-K, 2′-((6-Morpholinopyrimidin-4-yl)amino)spiro[cyclohexane-1,4′-thieno[2,3-c]pyrrol]-6′(5′H)-one]: the 50% inhibitory concentration (IC50) was more than 1000 nM.

`O=C1NC2(CCCCC2)c2cc(Nc3cc(N4CCC(F)(F)CC4)ncn3)sc21` [Compound XXIII-L, 2′-((6-(4,4-Difluoropiperidin-1-yl)pyrimidin-4-yl)amino)spiro[cyclohexane-1,4′-thieno[2,3-c]pyrrol]-6′(5′H)-one] yielded an IC50 of more than 1000 nM.

With `CN1CCN(c2cc(Nc3cc4c(s3)C(=O)NC43CCCCC3)ncn2)CC1` [Compound XXIII-M, 2′-((6-(4-Methylpiperazin-1-yl)pyrimidin-4-yl)amino)spiro[cyclohexane-1,4′-thieno[2,3-c]pyrrol]-6′(5′H)-one], the IC50 is more than 1000 nM.

On to `O=C1NC2(CCCCC2)c2cc(Nc3cc(Nc4ccncc4)ncn3)sc21` [Compound XXIII-O, 2′-((6-(pyridin-4-ylamino)pyrimidin-4-yl)amino)spiro[cyclohexane-1,4′-thieno[2,3-c]pyrrol]-6′(5′H)-one], for which the IC50 lay within 10 to 100 nM.

The values above are taken from patent US20240092799A1, “MNK INHIBITORS” (Hepagene Therapeutics (HK) Limited, priority 2020, published 2024).
